Reference: patent US6555578B2, “Thyromimetic antiobesity agents” (Pfizer Inc., priority 1999, dated 2003)

Tested on: whole body oxygen consumption
Assay: In vivo screen: whole body (resting) oxygen consumption in fatty Zucker rats by indirect calorimetry
Details: male fatty Zucker rats, oral gavage once daily for 6 days, measured the day after the last dose
Description: This in vivo screen is designed to evaluate the efficacy and cardiac effects of compounds that are tissue selective thyroid hormone agonists. The efficacy endpoints measured are whole body oxygen consumption and the activity of liver mitochrondrial alpha-glycerophosphate dehydrogenase (mGPDH). The cardiac endpoints that are measured are heart weight and heart mGPDH activity. The protocol involves dosing fatty Zucker rats for 6 days, then measuring oxygen consumption and harvesting of tissues for preparation of mitochondria and assaying of enzyme activity. […]
Oxygen consumption is measured the day after the last dose of compound is given using an open circuit, indirect calorimeter (Oxymax, Columbus Instruments, 950 North Hague Ave., Columbus, Ohio 43204). […] Rats are removed from their home cages, their body weights are recorded and they are placed in sealed chambers (43×43×10 cm) of the calorimeter and the chambers are placed in activity monitors. […] The activity monitors have 15 infrared light beams spaced one inch apart on each axis; ambulatory activity is recorded when two consecutive beams are broken and the results are recorded as counts. Oxygen consumption and ambulatory activity are measured every 10 minutes for 5-6.5 hours. […]

SMILES | stimulated oxygen consumption (dose of 1.0 mg/kg body weight) [%] | stimulated oxygen consumption (doses of 0.005 to 0.3 mg/kg body weight) [%]
Cc1cc(NC(=O)C(=O)O)cc(C)c1Oc1ccc(O)c(C(C)C)c1 [CGS-23425, N-[3,5-dimethyl-4-(4′-hydroxy-3′-isopropylphenoxy)-phenyl]-oxamic acid] | 27 | –
CCOC(=O)C(=O)Nc1cc(C)c(Oc2ccc(O)c(C(O)c3ccc(F)cc3)c2)c(C)c1 (centres unmarked) [CGS-26214, ethyl N-[4-[3′-[(4-fluorophenyl)hydroxymethyl]-4′-hydroxyphenoxy]-3,5-dimethylphenyl]oxamate] | – | 14 to 31
